Results reported in PubChem BioAssay (NCI).
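Cells were grown in 96-well plates and exposed to each compound for 48 hours at five concentrations; endpoints were interpolated linearly between bracketing concentrations, or set to the highest concentration if not reached. TGI denotes the concentration required for complete inhibition of growth.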

Assays:
Experiment in all cases: DTP human tumour cell line panel, 48 h
A549 NSCLC = test system: A549 NSCLC
BT-549 breast = test system: BT-549 breast
CAKI-1 renal = test system: CAKI-1 renal
COLO 205 colon = test system: COLO 205 colon
HCT-15 colon = test system: HCT-15 colon
HL-60(TB) leukemia = test system: HL-60(TB) leukemia
HS 578T breast = test system: HS 578T breast
K-562 leukemia = test system: K-562 leukemia
MOLT-4 leukemia = test system: MOLT-4 leukemia
OVCAR-3 ovarian = test system: OVCAR-3 ovarian
PC-3 prostate = test system: PC-3 prostate
SNB-75 CNS = test system: SNB-75 CNS
SR leukemia = test system: SR leukemia
SW-620 colon = test system: SW-620 colon
U251 CNS = test system: U251 CNS
NCI-H522 lung = test system: NCI-H522 lung

Compound	TGI (A549 NSCLC) [µM]	TGI (BT-549 breast) [µM]	TGI (CAKI-1 renal) [µM]	TGI (COLO 205 colon) [µM]	TGI (HCT-15 colon) [µM]	TGI (HL-60(TB) leukemia) [µM]	TGI (HS 578T breast) [µM]	TGI (K-562 leukemia) [µM]	TGI (MOLT-4 leukemia) [µM]	TGI (OVCAR-3 ovarian) [µM]	TGI (PC-3 prostate) [µM]	TGI (SNB-75 CNS) [µM]	TGI (SR leukemia) [µM]	TGI (SW-620 colon) [µM]	TGI (U251 CNS) [µM]	TGI (NCI-H522 lung) [µM]
COc1ccc(N=Nc2c(C)c(C#N)c(=S)n(C3OC(CO)C(O)C(O)C3O)c2-c2ccccc2)cc1 (stereo not drawn)	> 100	97.6	73.3	> 100	> 100	> 100	55.3	> 100	46.5	55.3	66.3	49.1	> 100	> 100	86.1	
N=C1OC(CN2CCN(c3ccccc3)CC2)CN1C(=S)Nc1ccccc1 (stereo not drawn)	> 100	> 100	> 100	> 100	> 100	> 100	> 100	> 100	> 100	> 100	> 100	> 100	> 100	> 100	> 100	> 100
O=C(O[C@@H](/C=C/c1ccccc1)P1(=O)N(Cc2ccccc2)[C@H]2CCCC[C@@H]2N1Cc1ccccc1)c1ccccc1	> 100	> 100	11.5	3.17	> 100	7.66	> 100	> 100		33.9	8.54	> 100	13.8	> 100	11.1	> 100
O=c1cc(N=Nc2ccc(Br)cc2)[nH]c(=S)[nH]1	> 100	> 100	23	45.1	29.8	58.6	> 100	54.4	63.3	28.9	> 100	> 100	74.1	64.5	> 100	38
C=C=C(CC1CCCCC1=O)S(=O)(=O)c1ccccc1 (stereo not drawn)	> 10	> 10	> 10	> 10	> 10	2.5	> 10	> 10	3.06	> 10	> 10	> 10	> 6.03	> 9.53	> 10	6.71
O=c1[nH]c2ccccc2c(=O)n1/N=C/c1ccc(O)cc1	> 100	> 100	> 100	> 100	> 100	> 100	74.6	> 100	> 100	> 100	> 100	> 100	> 100	> 100	> 100	
N#Cc1cc(C#N)c(N)nc1N	> 100	> 100	> 100	> 100	> 100	> 100	> 100	> 100	> 100	> 100	> 100	> 100	> 100	> 100	> 100	> 100
CC(ON(C(c1ccccc1)C(C)C)C(C)(C)C)c1ccccc1 (stereo not drawn)	84.9	28.7	55.7	32.5	> 100	36.7	64.1	49.8	35.9	30	94	42.9	67.6	31.6	30.9	44.4
Cc1cc2c(c(C=Nc3ccccc3O)c1)OC1(C=C2)Oc2ccccc2C(=O)N1C (stereo not drawn)	70.8	47.8	42.2	54.5	30.9	> 100	55.3	62.2	51	29.4	48.7	52.3	48	86.7	41	
O=C(CC(=O)N1N=C(N2CCCCC2)CC1c1ccccc1)Nc1ccccc1 (stereo not drawn)	> 100	> 100	> 100	> 100	> 100	> 100	> 100		> 100	> 100	> 100	> 100	> 100	> 100	> 100	> 100
CC(=O)C(=[N+]=[N-])C(=O)N1CCOC1=O	> 10	> 10	> 10	> 10	> 10	> 10	> 10	> 10	> 10	> 10	> 10	> 10	> 10	> 10	> 10	
CC(C)=CCC[C@]1(C)C=Cc2c(O)c3c(c(CC=C(C)C)c2O1)O[C@]12C(=C[C@@H]4CC1C(C)(C)O[C@@]2(C/C=C(/C)C(=O)O)C4=O)C3=O	3.71	7.03	3.66			0.706	9.68		1.8	2.67	2.23	3.28	0.939	2.89	3.31	2.32
O=C1NC(N2CCOCC2)=N/C1=C\c1ccc(Cl)cc1	> 100	> 100	> 100	> 100	> 100	> 100	> 100		> 100	> 100	> 100	> 100	> 100	> 100	> 100	> 100
Cc1cn([C@@H]2C[C@@H]2CO)c(=O)[nH]c1=O	> 100	> 100	> 100	> 100	> 100	> 100	> 100	> 100	> 100		> 100	> 100	> 100	> 100	> 100	> 100
NC(Cc1ccc(OCc2ccccc2)cn1)C(=O)O (stereo not drawn)	> 100	> 100	> 100	> 100	> 100	> 100	> 100	> 100	> 100	> 100	> 100		> 100	> 100	> 100	> 100
